Experimental data: the NIST ThermoML archive (doi:10.1021/je700714m)

Key:
[1] = refractive index (Na D-line) (dimensionless); xn = mol fraction of the nth substance listed; conditions: 100 kPa, Liquid
[2] = xn = mol fraction of the nth substance listed; conditions: for mass density / speed of sound / viscosity: 100 kPa, Liquid

COc1ccc(C=O)cc1 [4-methoxybenzaldehyde] + Clc1ccccc1
Conditions	mass density, [2] [kg/m3]	refractive index, [1]	speed of sound, [2] [m/s]	surface tension liquid-gas, [2] [mN/m]	viscosity, [2] [mPa·s]
303.15 K, x1 = 0.144	1105.1	1.5589	1339	43.12	0.8478
303.15 K, x1 = 0.2517	1107	1.5587	1383	50.12	1.023
303.15 K, x1 = 0.3354	1109.1	1.5586	1418	56	1.168
303.15 K, x1 = 0.4308	1111.2	1.5585	1459	62.5	1.334
303.15 K, x1 = 0.5457	1113.2	1.5583	1505	70.14	1.566
303.15 K, x1 = 0.6271	1115.3	1.5581	1537	75.82	1.771
303.15 K, x1 = 0.7371	1118	1.5578	1580	84.11	2.086
303.15 K, x1 = 0.8079	1122	1.5576	1607	87.59	2.353
303.15 K, x1 = 0.9439	1124	1.5572	1662	96.09	2.948
303.15 K, x1 = 1	1125.5	1.5571	1684	99.08	3.275
313.15 K, x1 = 0.144	1085.1	1.5508	820	41.6	0.7705
313.15 K, x1 = 0.2517	1089.3	1.5507	924	49.11	0.9236
313.15 K, x1 = 0.3354	1092.1	1.5506	1004	55.33	1.047
313.15 K, x1 = 0.4308	–	1.5504	1097	62.12	1.178
313.15 K, x1 = 0.5457	1100.5	1.5502	1207	71.23	1.357
313.15 K, x1 = 0.6271	1103.5	1.55	1283	78.22	1.497
313.15 K, x1 = 0.7371	1107.2	1.5497	1385	83.11	1.762
313.15 K, x1 = 0.8079	1110.2	1.5494	1452	86.41	1.986
313.15 K, x1 = 0.9439	1116.3	1.549	1577	94.66	2.596
313.15 K, x1 = 1	1119.1	1.5488	1631	96.11	2.97
323.15 K, x1 = 0.144	1073.5	1.548	738	40.52	0.6646
323.15 K, x1 = 0.2517	1078.6	1.5479	758	47.99	0.8222
323.15 K, x1 = 0.3354	1082.5	1.5478	850	53.34	0.9386
323.15 K, x1 = 0.4308	1086.3	1.5477	955	60.11	1.059
323.15 K, x1 = 0.5457	1091.6	1.5475	1082	68.77	1.192
323.15 K, x1 = 0.6271	1095	1.5475	1170	75.22	1.287
323.15 K, x1 = 0.7371	1100	1.5474	1290	82.89	1.474
323.15 K, x1 = 0.8079	1103	1.547	1365	85.22	1.635
323.15 K, x1 = 0.9439	1110.1	1.5466	1511	93.44	2.122
323.15 K, x1 = 1	1114.1	1.5463	1571	94.1	2.442
